From patent US10675293B2, “Nucleoside agents for the reduction of the deleterious activity of extended nucleotide repeat containing genes” (The Board of Trustees of the Leland Stanford Junior …, priority 2015, dated 2020) come the findings set out here.

The subject of one assay is Q20-GFP. Put plainly: PolyQ-tagged GFP reporter in HEK293 cells, Q20-GFP. As to conditions: higher concentration, 48 hours after transfection. Type of assay: cell-based. The source says:
CAG repeats and part of the flanking region in the first exon of Htt gene were PCR amplified from cDNA of HD patient lymphoblastoid cells containing one normal and one mutant allele (Q22 and Q44) with additional flanking restriction enzyme sites NheI. The PCR fragments were than in-frame fused with pEGFP-C1 at the end of the EGFP gene to express polyQ tagged GFP.
Normal length of poly Q (Q20) and pathogenic length of poly Q(Q44) were in-frame fused at the amino-terminus of eGFPC1 protein to generate Q44- and Q20-GFP (FIG. 8A). The plasmid carrying the polyQ tagged GFP was transfected into HEK 293 cells with greater than 90% transfection efficiency.
(§1) HEK293 cells were transiently transfected with the above mentioned GFP constructs. Five hours after transfection, cells were split among the wells of a 24-well plate and various concentrations of HD101 were added into the wells. 48 hours after transfection, cells were washed with PBS, fixed with 4% paraformaldehyde, and then nuclear stained with DAPI. The cell images were taken by fluorescent microscope (FIG. 9A) and the GFP and DAPI intensity of each field were quantitated using software Image Pro 6.2.

In a further assay the test system is mutant Htt gene. Put plainly: RT-PCR of Htt mRNA in Hdh Q111/Q111 striatal cells. Type of assay: cell-based, mouse. Particulars: compared to mock control. Here is the method: Tet-on HeLa cells (Clontech Laboratories), and stable line 2-PN4 and 21-VS were cultured in DMEM (Gibco) supplemented with 10% Tet-off fetal bovine serum (Gibco) at 37° C. with 5% CO2. Hdh Q7/Q7 (mouse), Hdh Q111/Q111 (mouse) were cultured in DMEM (HyClone) supplemented with 10% fetal bovine serum at 33° C. with 5% C02.
Total RNA was extracted from murine neuronal cells using TRI Reagent (Sigma). For cDNA conversion, 2 μg of total RNA was mixed with 5 μM random primer, 5 μM SnRNA U6 rt-PCR primer and 500 μM dNTPs, incubated at 65° C. for 5 min and then chilled on ice. After addition of First-Strand Buffer, DTT (Cf=10 mM) and 1 μl reverse transcriptase (Invitrogen), the reaction was carried out at 42° C. for 1 hr. Equal volumes of cDNA products were PCR amplified and resolved on 2.5% agarose gels to determine the abundance of Htt transcripts after normalization with U6 or 18S ribosomal RNA.

For another assay, the system named is eGFPC1. Put plainly: GFP reporter in HEK293 cells, eGFPC1 without polyQ. Type of assay: cell-based. As to conditions: higher concentration, 48 hours after transfection. The protocol: as §1
Assay [1] concerns Supt4h-YC and NGN-YN protein expression. Put plainly: Western blot of Supt4h-YC and NGN-YN protein levels in 2-PN4 cells. Type of assay: cell-based, human. Here is the method:
As described (Liu et al., “Spt4 is selectively required for transcription of extended trinucleotide repeats,” Cell (2012) 148:690-701), equal amounts of protein were resolved by electrophoresis on 12% sodium dodecyl sulfate (SDS)-polyacrylamide gels, and transferred onto nitrocellulose membranes (nitrocellulose, Waterman 0.45 μM, NBA085C). After blocking with 5% low-fat milk in Tris-buffer saline containing 0.1% Tween-20, membranes were probed with primary antibodies, incubated with a horseradish peroxidase (HRP)-conjugated secondary antibody, and detected by ECL reagent (enhanced chemiluminescence, PerkinElmer).

The subject of the next assay is 21-VS cells (HA-Venus). Put plainly: Control fluorescence of 21-VS stable cells expressing intact Venus. Type of assay: cell-based. Particulars: higher concentration, where BiFC reduction has reached its plateau. Here is the method:
The HA-Supt4h-YC and FLAG-NGN-YN fragments were amplified by PCR using plasmid constructs described above and sub-cloned individually into the pTRE-tight-BI vector (Clontech Laboratories), which contain a bi-directional CMV promoter under the control of tetracycline. The coding sequence of yellow fluorescence protein Venus with a HA-epitope in its N-terminus was PCR-amplified and cloned into the vector to generate pTRE-HA-Venus.
Tet-on HeLa cells were transfected with linearized pTRE-HA-Supt4h-VC-Flag-NGN-VN plasmid construct using LipofectAMINE 2000 (Invitrogen). After transfection, cells were cultured initially in growth medium containing puromycin (1 μg/ml) and then selected for clones that show YFP fluorescence in the presence of tetracycline (4 μg/ml). The stable line having the strongest fluorescence signal was isolated and designated as 2-PN4. […]
Stable lines 2-PN4 and 21-VS were pre-cultured in 6-well plates, followed by an incubation of Doxycycline (4 μg/ml) together with various concentrations of chemical compounds for 24 hr. Cells were washed with PBS (Sigma) and monitored by microscope (20× magnification). Photos were taken using Nikon D500 camera with a setting of ISO 1600, shutter 1/200 for the light images, and shutter ½ for the fluorescence images. […] The average of overall fluorescence signal was determined and compared to the one observed in DMSO-treated control sample. […]

For `O=c1cnn([C@@H]2O[C@H](CO)[C@@H](O)[C@H]2O)c(=O)[nH]1` [HD101, 6-Azauridine], in the assay on Q20-GFP, the “Q20-GFP expression (GFP intensity normalized with DAPI)” value is “down regulating both Q20 and Q44-GFP significantly”. Further, the “Htt mRNA transcribed from mutant allele” value in the assay on mutant Htt gene is reported as “down-regulates the expression of mutant Htt gene”. Also, in the assay with eGFPC1, the “eGFPC1 expression (GFP intensity normalized with DAPI)” value was “minimum effect”. For the same compound, the “protein expression of Supt4h-YC and NGN-YN” value in assay [1] is given as “does not decrease the BiFC signal via a change in the protein level”. The “fluorescence of 21-VS cells” value with 21-VS cells (HA-Venus) was “markedly affected”.
